Experimental data from patent publication US11905277B1, “2-alkyloxy-6-(2-oxo-2H-1-benzopyran-3-yl)-4-phenylpyridine-3-carbonitrile as an antimicrobial compound” (KING FAISAL UNIVERSITY, priority 2023, dated 2024).

Experiments:
different microbes = assay: Antimicrobial testing, overall statement on Tables 1 and 2; format: cell-based; conditions: summary of Tables 1 and 2; bacteria and fungi tested
Experimental: (§1) The agar plate disc-diffusion method was applied. Sterilized filter papers (6 mm in diameter) were wetted with 10 μL of a solution of 2-ethoxy-6-(2-oxo-2H-1-benzopyran-3-yl)-4-phenylpyridine-3-carbonitrile (1) and 2-methoxy-6-(2-oxo-2H-1-benzopyran-3-yl)-4-phenylpyridine-3-carbonitrile (2) to be tested, containing […], and the discs were allowed to air dry. The discs were then placed onto the surface of agar plates (nutrient agar for bacteria and Sabouraud's dextrose agar for fungi) seeded with the test organism. Each plate contained 15 mL of the agar medium, previously seeded with 0.2 mL of the broth culture of each organism pregrown for 18 hours. The plates were incubated at 37° C. for 48 h, and 72 h for fungi. The inhibition zones were measured in mm. Discs impregnated with DMSO were used as a control, and its inhibition zone was subtracted from the tested compound actual inhibition zone.
Their antibacterial activity was screened against gram positive bacteria namely Bacillus cereus and Staphylococcus aureus and gram-negative bacterial strains namely Pseudomonas aeruginosa and Escherichia coli, while their antifungal activity was screened against Aspergillus flavus and Chrysosporium keratinophilum.

Pseudomonas aeruginosa = assay: Agar plate disc-diffusion, antibacterial activity (inhibition zone); format: cell-based; conditions: nutrient agar, 37° C., 48 h, DMSO zone subtracted
Experimental: as §1

Staphylococcus aureus = assay: as above; format: cell-based; conditions: nutrient agar, 37° C., 48 h, DMSO zone subtracted
Experimental: as §1

Escherichia coli = assay: as above; format: cell-based; conditions: nutrient agar, 37° C., 48 h, DMSO zone subtracted
Experimental: as §1

Bacillus cereus = assay: as above; format: cell-based; conditions: nutrient agar, 37° C., 48 h, DMSO zone subtracted
Experimental: as §1

Aspergillus flavus = assay: Agar plate disc-diffusion, antifungal activity (inhibition zone); format: cell-based; conditions: Sabouraud's dextrose agar, 72 h, DMSO zone subtracted
Experimental: as §1

[1] = system: Chrysosporium keratinophilum; assay: as above; format: cell-based; conditions: Sabouraud's dextrose agar, 72 h, DMSO zone subtracted
Experimental: as §1

[2] = A = concentration of comp. = 10,000 μL
[3] = B = concentration of comp. = 30.000 μL
[4] = C = concentration of comp. = 50,000 μL

| Compound | antimicrobial activity (in words) (different microbes) | inhibition zone (Pseudomonas aeruginosa; [2]) | inhibition zone (Pseudomonas aeruginosa; [3]) | inhibition zone (Pseudomonas aeruginosa; [4]) | inhibition zone (Staphylococcus aureus; [2]) | inhibition zone (Staphylococcus aureus; [3]) | inhibition zone (Staphylococcus aureus; [4]) | inhibition zone (Escherichia coli; [2]) | inhibition zone (Escherichia coli; [3]) | inhibition zone (Escherichia coli; [4]) | inhibition zone (Bacillus cereus; [2]) | inhibition zone (Bacillus cereus; [3]) | inhibition zone (Bacillus cereus; [4]) | melting point | inhibition zone (Aspergillus flavus; [2]) | inhibition zone (Aspergillus flavus; [3]) | inhibition zone (Aspergillus flavus; [4]) | inhibition zone [1, 2] | inhibition zone [1, 3] | inhibition zone [1, 4] |
| --- | --- | --- | --- | --- | --- | --- | --- | --- | --- | --- | --- | --- | --- | --- | --- | --- | --- | --- | --- | --- |
| COc1nc(-c2cc3ccccc3oc2=O)cc(-c2ccccc2)c1C#N [Compound 2, 2-methoxy-6-(2-oxo-2H-1-benzopyran-3-yl)-4-phenylpyridine-3-carbonitrile] | high antimicrobial activities | 25 mm | 34 mm | 41 mm | 15 mm | 22 mm | 25 mm | 37 mm | 43 mm | 49 mm | 33 mm | 38 mm | 44 mm | 149 to 150 °C | 17 mm | 21 mm | 29 mm | 31 mm | 39 mm | 47 mm |
| O=C(O)c1cn(C2CC2)c2cc(N3CCNCC3)c(F)cc2c1=O [Cip., reference compound] |  | 29 mm | 30 mm | 53 mm | 43 mm | 44 mm | 53 mm | 30 mm | 39 mm | 60 mm | 29 mm | 30 mm | 42 mm |  | 29 mm | 30 mm | 42 mm | 29 mm | 30 mm | 53 mm |
| CCOc1nc(-c2cc3ccccc3oc2=O)cc(-c2ccccc2)c1C#N [Compound 1, 2-ethoxy-6-(2-oxo-2H-1-benzopyran-3-yl)-4-phenylpyridine-3-carbonitrile] | high antimicrobial activities | 25 mm | 32 mm | 40 mm | 11 mm | 19 mm | 21 mm | 38 mm | 43 mm | 48 mm | 31 mm | 36 mm | 43 mm |  | 29 mm | 33 mm | 41 mm | 22 mm | 31 mm | 37 mm |
